Key:
[1] = tested on: Human Promyelocytic Leukaemia HL-60 Cells; experiment: Cyto-fluorometric cell cycle analysis, HL-60; assay type: cell-based; details: for APOPTOSIS / G0/G1 / G2 + M / S: 3 days; for G0/G1 / G2 + M / S: percentage of cell cycle phase
Method: To evaluate the effect of the compound according to the invention, on various phases of the cell cycle, cyto-fluorometric cell cycle analyses were performed.
HL60 or NB4 cells were seeded onto plates at a density of 150.000 cells/ml in RPMI 1640 medium containing 10% FCS, the test compound (ST 1926) was added, […], in the presence or absence of sub-optimal doses of ATRA (5-10 nM for NB4 and 0.5 μM for HL60) in the dark and placed in an incubator for 3 days without changing the culture medium.
On the third day of treatment 500.000 cells were sampled, centrifuged at 180×g for 5 minutes, washed twice in calcium and magnesium free PBS. The cells (1×10^6/ml of fixative) were fixed for at least 1 hour in a fixation mixture comprised of acetone/methanol 1:4 v/v maintained at −20° C. and 50% of calcium and magnesium free PBS; then the cells were centrifuged, washed in calcium and magnesium free PBS, and again centrifuged and washed. The cellular precipitate was incubated for 30 minutes in the dark at room temperature with 200 μl of […] (100 μg/ml) and 200 μl of RNAse (150 KU/mg).
The samples with filtered through nylon filters (60-80 μm diameter) and analysed by cyto-fluorimeter FACScan (Becton Dickinson), acquiring 20000 events/sample, at an excitation wavelength of 488 nm and emission wavelength of 620 nm. The analysis of the percentages of the cell cycle phases was performed using a dedicated software package, Modfit v. 2.0 (Becton Dickinson).

[2] = tested on: Murine pulmonary adenocarcinoma Madison 109 (M109); experiment: Antitumoral activity in murine pulmonary carcinoma model M109; assay type: in vivo, BALB/c mouse; details: qdx5x3w; for TVI %: 2 days after final administration
Method: Murine pulmonary adenocarcinoma Madison 109 cells (M109) were maintained by s.c. passage of tumor fragments. The day of inoculation, the cell suspension was injected i.m. in the rear left limb of a 20 g male BALB/c mouse at a density of 3×10^5 cells/mouse. 3LL murine Lewis lung carcinoma was routinely maintained by i.m. passages (every 10-14 days) of 1×10^5 cells/mouse in C57BL/6J mice. For antitumor activity experiments, tumors were excised from donor mice and after mechanical desegregation and enzymatic digestion tumor cell viability was assessed by the trypan blue dye exclusion test. Then, 1×10^5 cells/100 μl/mouse were injected i.m. into the right hind leg muscle of C57BL/6J mice.
Tumor dimension measurements were performed using a digital calliper (Vernier Caliper) from the day in which the mass became measurable, twice weekly. The tumor mass was assessed from the size of the two principal dimensions (length and breadth), expressed in mm, applying the formula (length×breadth^2)/2 that is, the tumor volume in mm3. For every experimental group the percentage of inhibition of tumor volume (TVI %) was calculated, with respect to that of the control that is (100−(T/C %). TVI was evaluated 2 days after the final administration of ST1926.
The mean survival time (MST) was also measured and the increase in mean life-span expressed as ILS % (increase of life span) calculated as (MSTT/MSTC)×100−100.
The comparison between the values of TVI and of survival time, obtained for each group were performed with the non parametric Mann Whitney test for non paired data, using the Instat software from GraphPad inc.
The ST1926 solution was prepared immediately before use and solubilised in cremophor:ethanol 1:1 and subsequently diluted 1:4 in buffered saline solution. The treatments of the animals were carried out in a volume of 10 ml/kg. The treatment scheme for ST1926 at different doses was for 5 consecutive days (qdx5), beginning 1 day after the inoculation with the tumoral cells and was repeated for 3 cycles.
The mice (8 for each group) were weighed prior to each treatment, firstly, so as to be able to administer the correct quantity of substance, based on the eventual variations in weight observed throughout the period of drug administration, and also to be able to register the maximum weight loss throughout the treatment (BWL % max).

[3] = tested on: chicken chorioallantoic membrane vessels, bFGF induced; experiment: Angiostatic activity in chicken chorioallantoic membrane (CAM) model; assay type: in vivo; details: bFGF 0.05 + compound 0.25 μg/embryo
Excerpt: The chicken chorioallantoic membrane is a very vascularised membrane in which the vessels make their appearance at the 4th day of development, develop an arteriovenal system by the 8th day of development, and actively proliferate until the 11th day.
The aim of the study was to follow vasal development in the CAM under basal conditions and in the presence of an inducer bFGF (basic Fibroblast Growth Factor) of vasoproliferation. This study used chicken embryonal eggs at the initial stage of their development. On the 3rd day of development an operation to open the shells was performed to make the vessels of the CAM visible. The treatment was administered on the 9th day of development by applying a fragment of sterile gelatine (GELFOAM Pharmacia-Upjohn) about 1 mm^3, to the CAM surface, onto which was administered the bFGF (50 ng/embryo) or the products in question, for 3 consecutive days.
The evaluation of the effect of the molecule on vasoproliferation was obtained by a comparison of the vessels at the time of zero treatment with these of later times (12th day).

## O=C(O)/C=C/c1ccc(-c2ccc(O)c(C34CC5CC(CC(C5)C3)C4)c2)cc1 [ST1926, E-4-(3-(1-adamantyl)-4-hydroxyphenyl)cinnamic acid]
[1]; HL-60, 0.0025 μM
  APOPTOSIS: 8
  G0/G1: 54.9
  G2 + M: 11.7
  S: 33.4
[1]; HL-60, 0.005 μM
  APOPTOSIS: 14.0
  G0/G1: 53.4
  G2 + M: 12.2
  S: 34.4
[1]; HL-60, 0.01 μM
  APOPTOSIS: 12.5
  G0/G1: 52.0
  G2 + M: 12.6
  S: 35.4
[1]; HL-60, 0.05 μM
  APOPTOSIS: 13.0
  G0/G1: 45.0
  G2 + M: 13.0
  S: 42.0
[1]; HL-60, 0.1 μM
  APOPTOSIS: 27.5
  G0/G1: 39.9
  G2 + M: 13.3
  S: 46.8
[1]; HL-60, 0.5 μM
  APOPTOSIS: 82
[1]; HL-60, 1 μM
  APOPTOSIS: 86.5
[1]; HL-60, 0.5 and 1 μM, three days, cell cycle not measurable
  effect on HL-60 cells (in words): strong pro-apoptotic effect
[2]; M109, 10 mg/kg i.p.
  BWL % Max: 9%
  ILS %: 27%
  MST (range days): *28 (25-35) days
  TVI %: 18%
[2]; M109, 10 mg/kg p.o.
  BWL % Max: 10%
  ILS %: 59%
  MST (range days): **35 (27-42) days
  TVI %: *49%
[2]; M109, 15 mg/kg i.p.
  BWL % Max: 10%
  ILS %: 64%
  MST (range days): **36 (30-42) days
  TVI %: *46%
[3]
  Δvessels, change vs bFGF alone: (−53%)
[3]; mean ± SE
  12th day (72 hours), number of vessels per sponge: 12 ± 2 vessels per sponge
  Δvessels: 9 ± 2 vessels per sponge
